Assay results: ChEMBL document CHEMBL1649448, “Atorvastatin is a promising partner for antimalarial drugs in treatment of Plasmodium falciparum malaria” (Antimicrob Agents Chemother, 2009)

test system: Plasmodium falciparum; experiment: Antimalarial activity against Plasmodium falciparum IMT K2 assessed as incorporation of [3H]hypoxanthine after 48 hrs by scintillation counter; assay type: functional, organism-based

Compound	IC50
C=C[C@H]1CN2CC[C@H]1C[C@H]2[C@H](O)c1ccnc2ccc(OC)cc12 [QUININE]	48 nM
